# Where a chain is given by its changes, count along the chain named.
# Experiments:
# [1] = molecular target: T1, α1A-AR (Homo sapiens, UniProt P35348); assay: Intracellular Ca^2+ release in CHO-K1 cells expressing the α1A-AR; type: cell-based; parameters: expressed in transfected cells; conditions: for Emax: CHO-K1, read-out: Emax, Ca^2+ release
# T1 sequence (P35348 1-466): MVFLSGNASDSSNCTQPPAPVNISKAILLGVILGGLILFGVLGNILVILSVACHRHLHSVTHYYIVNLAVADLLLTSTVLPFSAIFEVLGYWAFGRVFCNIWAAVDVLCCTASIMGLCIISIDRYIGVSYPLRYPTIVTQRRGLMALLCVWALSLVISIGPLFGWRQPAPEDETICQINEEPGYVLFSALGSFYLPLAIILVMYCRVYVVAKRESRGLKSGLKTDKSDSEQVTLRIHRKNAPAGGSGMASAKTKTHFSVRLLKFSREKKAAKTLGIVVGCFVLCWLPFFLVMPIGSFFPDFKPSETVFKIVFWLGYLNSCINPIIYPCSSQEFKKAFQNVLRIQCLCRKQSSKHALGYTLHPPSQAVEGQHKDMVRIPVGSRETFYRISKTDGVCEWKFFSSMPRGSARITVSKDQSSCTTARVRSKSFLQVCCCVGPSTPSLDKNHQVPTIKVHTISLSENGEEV
# Protocol: (§1) CHO cells stably expressing α1-ARs were kindly provided by Dr. Hervé Paris (INSERM U858, Toulouse, France) and were grown in a 50∶50 Dulbecco's Modified Eagle's Medium (DMEM)/Ham's F12 medium supplemented with 10% (v/v) foetal bovine serum (FBS), glutamine (2 mM), penicillin (100 units/ml) and streptomycin (100 µg/ml) at 37°C with 5% CO2. COS-7 cells were grown at 37°C under 5% CO2 in Dulbecco's modified Eagle's medium containing 10% fetal calf serum, 1% penicillin and 1% glutamine (Sigma-Aldrich, St Quentin-Fallavier, France). At 80% confluence, the cells were transfected using a calcium phosphate precipitation method for transient expression of the genetic construct. After 48 h incubation at 37°C, cells were harvested and the membranes were prepared as follow. Cells were washed with ice-cold phosphate buffer and centrifuged at 1700 g for 10 min (4°C). The pellet was suspended in ice-cold buffer (1 mM EDTA, 25 mM sodium phosphate, and 5 mM MgCl2, pH 7.4) and homogenized using an Potter-Elvehjem homogenizer (Fisher Scientific Labosi, Elancourt, France). The homogenate was centrifuged at 1700 g for 15 min (4°C). The sediment was resuspended in buffer, homogenized, and centrifuged at 1700 g for 15 min (4°C). The combined supernatants were centrifuged at 35,000 g for 30 min (4°C), and the pellet was suspended in the same buffer (0.1 ml/dish). […] Cells were grown in a 50∶50 Dulbecco's Modified Eagle's Medium (DMEM)/Ham's F12 medium supplemented with 10% (v/v) foetal bovine serum (FBS), glutamine (2 mM), penicillin (100 units/ml) and streptomycin (100 µg/ml) at 37°C with 5% CO2. Media was changed every 2–3 days and cells were passaged when confluent with 0.05% trypsin and 0.02% EDTA.
# All experiments were performed in duplicate.
# [2] = molecular target: T2, human α1A-AR WT (Homo sapiens, UniProt P35348); assay: Competition binding with ^125I-HEAT, wild type receptor
# T2 construct: expressed in transfected cells; host or cells: COS-7, transient (calcium phosphate)
# T2 sequence (P35348 1-466): T1 sequence (P35348 1-466)
# Protocol: as §1
# (§2) Binding experiments were performed in a 100 µL reaction mix at room temperature in buffer composed of 50 mM Tris-HCl, pH 7.4, 10 mM MgCl2, 1 g/L BSA. Reactions were stopped by filtration through 96 GF/C filter plates pre-incubated with 0.5% polyethylenimine.
# (§3) Binding data were analyzed by nonlinear regression using the KaleidaGraph 4.0 software (Synergy software, Reading, PA). pKD values and Bmax (number of binding sites) were determined by applying a nonlinear regression to data obtained with saturation binding assays. […] Data resulting from competition binding assays were analyzed using the Hill equation for IC50 and curve slope estimations. […] The linear curves were analyzed with IC50 = Ki+(L/KD)*Ki. Dissociation kinetics were analyzed using a simple equation of exponential decay BS * exp (-Koff*t), where BS is the specific binding at time zero and Koff is the dissociation rate constant. Results are expressed as mean ± s.e. mean from n independent experiments. […]
# [3] = molecular target: T3, human α1A-AR F187A variant (Homo sapiens, UniProt P35348, F187A); assay: Saturation binding of ^125I-HEAT; conditions: F187A variant relative to wild type
# T3 construct: expressed in transfected cells; host or cells: COS-7, transient (calcium phosphate)
# T3 sequence (P35348 1-466 F187A): T1 sequence (P35348 1-466) with F187A
# Text: (§4) α1A-AR cDNA inserted in the prK5 vector was kindly provided by Michael Brownstein (Craig Venter Institute, Rockville, MD). Point mutations were introduced into the α1A-AR gene by sense and antisense primers (Sigma-Aldrich, St Quentin-Fallavier, France) containing the desired changes, using the QuikChange Site-Directed Mutagenesis kit. The incorporation of each mutation was verified by DNA sequencing.
# as §1, §2
# Binding data were analyzed by nonlinear regression using the KaleidaGraph 4.0 software (Synergy software, Reading, PA). pKD values and Bmax (number of binding sites) were determined by applying a nonlinear regression to data obtained with saturation binding assays. The nonlinear regression used was BS = (Bmax*A)/KD+A, where BS is the specific binding, Bmax the number of binding sites, A the concentration of radioligand, and KD the dissociation constant of the radioligand. Data resulting from competition binding assays were analyzed using the Hill equation for IC50 and curve slope estimations. […] The linear curves were analyzed with IC50 = Ki+(L/KD)*Ki. Dissociation kinetics were analyzed using a simple equation of exponential decay BS * exp (-Koff*t), where BS is the specific binding at time zero and Koff is the dissociation rate constant. Results are expressed as mean ± s.e. mean from n independent experiments. One-way Anova test was used to compare values. A p<0.05 was accepted for statistical significance.
# [4] = molecular target: T4, human α1A-AR D106A variant (Homo sapiens, UniProt P35348, D106A); assay: Competition binding with ^125I-HEAT
# T4 construct: expressed in transfected cells; host or cells: COS-7, transient (calcium phosphate)
# T4 sequence (P35348 1-466 D106A): T1 sequence (P35348 1-466) with D106A
# Text: as §4
# as §1, with “Media was changed every 2–3 days and cells were passaged when confluent with 0.05% trypsin and 0.02% EDTA.” left out
# as §3
# [5] = molecular target: T5, human α1A-AR F86A variant (Homo sapiens, UniProt P35348, F86A); assay: Competition binding with ^125I-HEAT
# T5 construct: expressed in transfected cells; host or cells: COS-7, transient (calcium phosphate)
# T5 sequence (P35348 1-466 F86A): T1 sequence (P35348 1-466) with F86A
# Text: as §4
# as §1, with “Media was changed every 2–3 days and cells were passaged when confluent with 0.05% trypsin and 0.02% EDTA.” left out
# as §3
# [6] = molecular target: T1, α1A-AR; assay: Competition binding with ^3H-prazosin; parameters: expressed in transfected cells; conditions: inhibition of ^3H-prazosin 2 nM
# Protocol: CHO cells stably expressing α1-ARs were kindly provided by Dr. Hervé Paris (INSERM U858, Toulouse, France) and were grown in a 50∶50 Dulbecco's Modified Eagle's Medium (DMEM)/Ham's F12 medium supplemented with 10% (v/v) foetal bovine serum (FBS), glutamine (2 mM), penicillin (100 units/ml) and streptomycin (100 µg/ml) at 37°C with 5% CO2. COS-7 cells were grown at 37°C under 5% CO2 in Dulbecco's modified Eagle's medium containing 10% fetal calf serum, 1% penicillin and 1% glutamine (Sigma-Aldrich, St Quentin-Fallavier, France). At 80% confluence, the cells were transfected using a calcium phosphate precipitation method for transient expression of the genetic construct. […]
# as §3
# [7] = system: α1A-AR; parameters: method as in PMID 20015090; conditions: cited from earlier work
# [8] = molecular target: α1B-AR; parameters: method as in PMID 20015090; conditions: α1B-AR expressed in yeast; read-out: affinity; cited from earlier work
# [9] = molecular target: α1D-AR; parameters: method as in PMID 20015090; conditions: α1D-AR expressed in yeast; read-out: affinity; cited from earlier work
# [10] = linear fit of ρ-Da1a IC50 against ^125I-HEAT concentration
molecule,measurement,setting,value
CS(=O)(=O)Nc1c(O)ccc2c1CCCC2C1=NCCN1 (stereo not shown) [A61603],"Emax, Ca^2+ release","[1]; CHO-K1 cells expressing the α1A-AR, agonist alone, A23187 1 µM",75.5±1.3 percentage of peak A23187 response
O=C1c2ccccc2CCC1CNCCc1ccc(O)cc1 (stereo not shown) [HEAT],Ratio (Ki relative to WT),[2]; WT,1
same,pKi,"[2]; WT, competition with ^125I-HEAT 200 pM",9.57±0.08
same,Kd,[2]; [10],0.0435 nM
same,pKd,[2]; [10],10.36
same,increase in HEAT affinity,[3],4.5 fold
same,Ratio (reduction of affinity relative to WT),[4],0.67
same,pKi,[4]; competition with ^125I-HEAT 200 pM,9.74±0.12
same,Ratio (reduction of affinity relative to WT),[5],23 ^*
same,pKi,[5]; competition with ^125I-HEAT […],8.21±0.09
same,Hill slope,[6],0.85
same,pKi,[6]; n = 3,9.66±0.08 nM
NC[C@H](O)c1ccc(O)c(O)c1 [noradrenaline],Emax,[1],77.8 ± 1.5%
Cc1cc(C(C)(C)C)c(O)c(C)c1CC1=NCCN1 [oxymetazoline],Emax,[1],60.8 ± 1.3%
CNC[C@H](O)c1cccc(O)c1 [phenylephrine],Emax,[1],64.8 ± 2.4%
ρ-Da1a,displacement of ^3H-prazosin binding,[7]; yeast membranes expressing the α1A-AR,85%
same,Ki,"[7]; α1A-AR expressed in yeast, read-out: affinity",0.35 nM
same,Ki,[8],317 nM
same,Ki,[9],420 nM
